The METLIN SMRT retention time set (Domingo-Almenara et al. 2019)

Test: gradient 5% acetonitrile 3 min, to 50% in 2 min, to 85% in 15 min, held 3 min, 100 µL/min
Conditions: column: Zorbax Extend-C18 2.1 x 50 mm; eluents: water / acetonitrile, 0.1% formic acid
How it was run: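 Each retention time is based on an adduct peak selected computationally and verified by manual inspection. Measurements used HPLC–quadrupole time-of-flight mass spectrometry in positive and negative ionization mode on mixtures of ~100 pure standards. Chromatography ran on a Zorbax Extend-C18 column (2.1 × 50 mm, 1.8 μm) at 100 μL/min with water and acetonitrile, each containing 0.1% formic acid, and dead and dwell volumes of 40 μL and 900 μL.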

| SMILES | RP-LC retention time |
| --- | --- |
| COc1ccccc1-c1noc(Cn2nc(-c3ccc4c(c3)OCO4)ccc2=O)n1 | 877 s |
| Cc1ccc(Nc2c(-c3cccc([N+](=O)[O-])c3)nc3ccc(Cl)cn23)cc1 | 1100 s |
| Cc1cc2c(N3CCCC(C(=O)NCc4ccc(N5CCOCC5)cc4)C3)nccc2s1 (stereo not drawn) | 711 s |
| Cn1nc(C(=O)N2CCCC(C(=O)NC3CC3)C2)c2c1CCN(C(=O)c1ccco1)C2 (stereo not drawn) | 594 s |
| O=C1NCCCCCCN(C(=O)c2ccoc2)[C@H]2C[C@H](C(=O)N3CCc4ccccc4C3)C[C@@H]12 | 762 s |
| CCOC(=O)c1c(C)c(C(=O)NCc2ccccc2Cl)c(C)n1CC | 929 s |
| CNC(=O)N1CCOc2cc(C)ccc21 | 713 s |
| Cc1ccc(-c2noc(-c3cccc(S(=O)(=O)Nc4cccnc4)c3)n2)cc1 | 941 s |
| Cc1noc2nc(C)n(CC(=O)NCC(C)c3ccccc3)c(=O)c12 (stereo not drawn) | 782 s |
| CCOc1ccc(C2c3[nH]c4ccccc4c3CCN2C(=O)C2CCC2)cc1 (stereo not drawn) | 1210 s |
| CC(C)[C@H](CO)Nc1nc(Sc2cccc(N)c2)c2ncn(C(C)C)c2n1 | 706 s |
| Cc1cc(C)cc(NC(=O)C2CCCN(c3cc(=O)n(C)c(=O)n3C)C2)c1 (stereo not drawn) | 783 s |
| Cc1ccc(CNS(=O)(=O)c2cc(-c3cc(C(F)(F)F)[nH]n3)sc2C)o1 | 964 s |
| O=S(=O)(c1ccc(Br)s1)N1CCc2nc(-c3ccccc3)ncc2C1 | 1160 s |
| CCN1CCN(c2nccc(-c3cnc4nc(-c5ccccc5)nn4c3C)n2)CC1 | 633 s |
| CN(Cc1ccccc1)C(=O)c1cn(-c2cc(N3CCSCC3)ncn2)cn1 | 869 s |
| CC(C)CN1CCN(C(=O)c2cn3ccnc(-c4ccccc4)c3n2)CC1 | 606 s |
| CCOCCCNC(=O)N1CCN(c2nc3ccccc3n(Cc3ccc(C)cc3)c2=O)CC1 | 1010 s |
| CN(NC1=NCCO1)c1ccc2ccccc2c1 | 620 s |
| O=C(NCCc1ccc(Cl)cc1)c1csc(C(=O)N2CCCC2)n1 | 894 s |
| O=C(NC(C(=O)N1CCCc2ccccc21)c1ccccc1)C1CC(=O)N(c2ccccc2)C1 (stereo not drawn) | 951 s |
| CCc1nnc(-c2ccc3ccn(CC(=O)N4CCN(c5cccc(Cl)c5)CC4)c3c2)o1 | 987 s |

| SMILES | RP-LC retention time |
| --- | --- |
| CCCn1c(-c2cccc(C(=O)NCc3ccc(Br)cc3)c2)nc2cccnc21 | 875 s |
| CN(C)C(=O)c1ccc2c(c1)N(CC(=O)N1CCCCC1)C(=O)C1CCCCN21 (stereo not drawn) | 701 s |
| CCNS(=O)(=O)c1cc(-c2csc(C)n2)ccc1OC | 784 s |
| CCc1cccc(C)c1Nc1c(-c2ccc(F)cc2)nc2nc(C)cc(C)n12 | 828 s |
| CCCCOc1ccc(CNC(=O)C2CCN(Cc3cn(CC)c4ccc(OC)cc34)CC2)cc1 | 842 s |
| Cc1c(C(=O)N2CCN(C(=O)c3ccc(Br)o3)CC2)[nH]c2ccccc12 | 839 s |
| Cc1noc(C)c1CCC(=O)N1CCN(c2ncnc3c2CCC3)CC1 | 576 s |
| CS(=O)(=O)N1CCC(C(=O)Nc2ccc3c(c2)N(C(=O)C2CCCO2)CC3)CC1 (stereo not drawn) | 631 s |
| CCc1nnc(-c2ccc(NS(=O)(=O)c3cccs3)cc2)o1 | 772 s |
| O=C(CSc1ccc(-c2cccs2)nn1)N1CCN(c2ccccc2)CC1 | 848 s |
| O=C(/C=C/C(=O)N1CCc2ccccc2C1)N1CCc2ccccc2C1 | 888 s |
| C[C@H]1CN(C(=O)Nc2cc(F)cc(F)c2)C[C@@H]1c1nc(-c2ccncc2)no1 | 883 s |
| CS(=O)(=O)c1ccc([C@@H](O)[C@@H](CF)NC(=O)C(Cl)Cl)cc1 | 723 s |
| COc1ccc(-n2nnc(C(=O)O)c2-c2ccncc2)cc1 | 592 s |
| CCCn1ccc2oc(C)c(C(=O)N3CCN(C4CCCCC4)CC3)c2c1=O | 612 s |
| Cc1nnc(C2CCCCCN2S(=O)(=O)c2ccccc2F)o1 (stereo not drawn) | 816 s |
| CC(NC(=O)Cc1cccn1-c1ccc(Cl)cc1)c1ccccn1 (stereo not drawn) | 790 s |
| Cc1ccc(NC(=O)NCC(c2cccnc2)c2cn(C)c3ccccc23)cc1F (stereo not drawn) | 722 s |
| COc1cc(C(C)=O)ccc1OCC(O)CN1CCN(c2cccc(C)c2C)CC1 (stereo not drawn) | 597 s |
| CCOc1ccc(-c2ccc(SCC)nn2)cc1 | 941 s |
| COC(=O)c1c(C)c(C(=O)C(C)N(Cc2ccc(F)cc2)C(=O)C2CCCC2)c(C)n1C (stereo not drawn) | 1090 s |
| Cc1cccc(Oc2nccnc2N2CCC(C(=O)NCCC3=CCCCC3)CC2)c1 | 1130 s |

| SMILES | RP-LC retention time |
| --- | --- |
| CC(=O)NC(C)c1nc(-c2ccc(Cl)cc2)no1 (stereo not drawn) | 777 s |
| Cc1cccc(CC(=O)NC2CCN(c3cc(-c4cccs4)[nH]n3)C2)c1 (stereo not drawn) | 726 s |
| c1ccc(-n2ncc3c(NCc4ccc5c(c4)OCO5)ncnc32)cc1 | 877 s |
| O=C(O)c1ccccc1C(=O)Nc1cccc([N+](=O)[O-])c1 | 776 s |
| Cc1ccc2nc(C)cc(C(=O)NC3CC3)c2c1 | 586 s |
| CCC(C)NC(=O)Cn1cnc2nc(N3CCCC(C(=O)NC)C3)sc2c1=O (stereo not drawn) | 608 s |
| N#CC1(C(=O)Nc2ccc(F)c(F)c2)CC1 | 760 s |
| Cn1c(=O)sc2cc(S(=O)(=O)N3CCC(C(=O)NCc4ccco4)CC3)ccc21 | 739 s |
| COc1ccc(-c2nc(-c3ccc4oc(C)nc4c3)no2)c(C)c1 | 1170 s |
| CCOc1ccc(Nc2c(-c3ccc(N(C)C)cc3)nc3cnccn23)cc1 | 813 s |
| CC(=O)Oc1ccc(C(=O)N2CCCc3ccccc32)cc1 | 904 s |
| COc1ccc(NC(=O)C2CN(S(C)(=O)=O)CC23CCCCC3)c(OC)c1 (stereo not drawn) | 860 s |
| Cc1ncc2c(n1)C[C@@H]1CC[C@H]2N1S(=O)(=O)c1ccc(F)cc1 | 720 s |
| COc1ccc(-c2ccc(=O)n(CCCC(=O)Nc3ccccc3C(N)=O)n2)cc1OC | 619 s |
| Cc1ccc(-c2noc(-c3nn(CC(=O)N4CCCC4)c4ccccc34)n2)cc1 | 1080 s |
| O=C(Nc1cccc(Cl)c1)N1CCN(c2cnn3c(C4CC4)nnc3c2)CC1 | 694 s |
| Cc1nn(C)c(=O)c2cc(S(=O)(=O)NCc3ccc(Cl)cc3)cn12 | 822 s |
| CCCN1CCN(C(=O)C2CCN(S(=O)(=O)c3ccc4c(c3)sc(=O)n4CC)CC2)CC1 | 623 s |
| CCc1cc(=O)n(CC(=O)NCc2ccccc2OC)c(N)n1 | 602 s |
| CC(C)NC(=O)CCc1c(-c2ccc(Cl)cc2)nc2ccccn12 | 622 s |
| CC(C)NC(=O)c1ccc(-c2nc3cc(NS(=O)(=O)c4cc(F)ccc4F)ccc3n2C)cc1 | 705 s |
| Cc1cccc(Nc2nc(CC(=O)NCc3ccccc3OC(F)(F)F)cs2)n1 | 708 s |

| SMILES | RP-LC retention time |
| --- | --- |
| O=c1n(Cc2cccc(C(F)(F)F)c2)nc2ccc(S(=O)(=O)N3CCCC3)cn12 | 938 s |
| Cc1ccccc1CC(=O)N1CCN(c2nc(CN3CCOCC3)cs2)CC1 | 636 s |
| Cc1csc(-c2cc(S(=O)(=O)Nc3ccc(S(N)(=O)=O)cc3)c(C)s2)n1 | 797 s |
| Fc1ccc(-c2nnc(Cc3nc(-c4ccc(C(F)(F)F)cc4)no3)o2)cc1 | 1100 s |
| CCOC(=O)c1noc2ncnc(N(CC)c3ccccc3)c12 | 948 s |
| CCn1ccc(C(=O)Nc2cccc(OCc3nnc(-c4ccc(OC)cc4)o3)c2)n1 | 891 s |
| O=C(Cn1cnc2nc(N3CCC(C(=O)NC4CC4)CC3)sc2c1=O)NC1CCCC1 | 609 s |
| CC1(C)CS(=O)(=O)N(c2cccc(C(=O)N3CCN(c4ccccn4)CC3)c2)C1=O | 608 s |
| Cc1nnc(-c2ccc3ccn(CC(=O)Nc4ncccc4C)c3c2)o1 | 618 s |
| CN(Cc1ccccc1)c1ccc(-c2noc(CN3CCCC3)n2)cn1 | 675 s |
| Cc1csc(-c2cc(S(=O)(=O)NCCN3CCCCC3C)cn2CC(=O)N2CCCCC2)n1 (stereo not drawn) | 673 s |
| CCCn1c(CCNC(=O)c2cccc(F)c2)nc2cccnc21 | 644 s |
| COc1ccc(-c2noc(C3CCCN3C(=O)NCc3ccco3)n2)cc1 (stereo not drawn) | 855 s |
| O=S(=O)(NCCc1noc(-c2ccccc2)n1)c1ccc2c(c1)OCCO2 | 883 s |
| Cc1cccc(NC(=O)Cn2ccc3ccc(-c4nnc(C)o4)cc32)c1 | 814 s |
| COc1ccc(C2Cn3nnc(C(=O)NCc4cc(OC)ccc4OC)c3CO2)cc1 (stereo not drawn) | 926 s |
| COc1ccc(-c2cn3c(CC(=O)Nc4cc(C)ccc4C)csc3n2)cc1OC | 746 s |
| CCOC(=O)C1CCN(C(=O)C2COC3(CCCCC3)N2C(=O)c2cccc(Cl)c2)CC1 (stereo not drawn) | 958 s |
| O=C(Cn1c(-c2cccs2)cc2cc(F)ccc21)N1CCN(c2ccccn2)CC1 | 761 s |
| CCc1nnc(-c2ccc3ccn(CC(=O)NCc4cc(OC)c(OC)c(OC)c4)c3c2)o1 | 760 s |
| COc1cc(OC)cc(C(=O)N(C)CCc2noc(-c3ccc(C(=O)N4CCCC4)cc3)n2)c1 | 759 s |
| Cc1ccc(C(=O)Nc2nccnc2C(=O)NC(C)c2ccc(F)cc2)cc1 (stereo not drawn) | 1060 s |
